# Source: paper PMC10901774, “Mirror-image ligand discovery enabled by single-shot fast-flow synthesis of D-proteins” (Nature Communications, 2024)
# Like-named read-outs stand apart in the source and are kept apart here. *1 amine or outer side, *2 acyl side, *3 side chain or, on linkers, in order; H or OH if unused. Where a SMILES comes first, the peptide text is derived from it. Bridges are numbered along the chain shown (N, C = ends). [ ]: non-standard residue; d: D form. Phenylene(1,4-NHCOCH2)2 = O=C(C[*:1])Nc1ccc(NC(=O)C[*:2])cc1
# Columns and labels:
# [1] = biological target: T1, CHIP23-303 recombinant protein (Homo sapiens, UniProt Q9UNE7); experiment: competition fluorescence polarization against FAM-Hsp70 peptide loaded CHIP; type: binding; details: SI table 1.27.1, read-out: Measured IC50
# T1 construct: 6xHis (N, cleaved yes); TEV cleavage site (N, cleaved yes); made in house; host or cells: E. coli BL21 CodonPlus (pET21b-derived vector)
# T1 sequence (Q9UNE7 23-303): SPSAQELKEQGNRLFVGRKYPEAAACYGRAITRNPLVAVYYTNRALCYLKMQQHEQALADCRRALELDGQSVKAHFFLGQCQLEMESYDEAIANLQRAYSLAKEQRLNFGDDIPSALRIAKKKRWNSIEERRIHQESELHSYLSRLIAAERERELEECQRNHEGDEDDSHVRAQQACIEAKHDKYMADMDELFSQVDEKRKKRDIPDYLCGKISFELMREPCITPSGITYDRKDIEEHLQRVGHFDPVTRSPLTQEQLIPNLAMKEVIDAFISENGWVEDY
# Excerpt: Not limited to known D-proteins, we nominated an original target for MIPD screening, CHIP, and identified three macrocyclic D-peptide binders. CHIP is a member of the RING/U-Box family of E3 ligases that direct the ubiquitination of chaperones[66] and their bound client proteins[67],[68] (Fig. 6A). This interaction is driven by a common (I/M)EEVD motif present on the C-terminus of heat shock protein 70 (Hsp70) and Hsp90 family members that is recognized by the TPR domain of CHIP[69] (Fig. 6B). Degradation driven by CHIP is active in a diverse range of cellular processes from monitoring protein quality control[68] to mediating interferon-γ signaling. Masking of the CHIP-TPR domain can in theory modulate these signaling pathways and as a result is actively being pursued[69],[71]. In addition, CHIP belongs to the same protein family as MDM2 (E3 ubiquitin ligases) and has potential therapeutic relevance by being implicated in neurological disease. For these reasons, we hypothesized that this domain would be a valuable target for D-peptide discovery, and successfully isolated the protein in its mirror image form for MIPD screening. […] All three clusters feature conserved terminal residues with carboxylate functionalities (dD3 in CHIP.C1, dD1/dE2 in CHIP.C2, and dD12 in CHIP.C3), consistent with the conserved terminal aspartic acid residues found on CHIP substrates. Hydrophobic residues are retained in the i,i + 4/5 positions relative to the anchoring aspartic acid residue: dW6 in CHIP.C1, dW6 in CHIP.C2, and dA8 in CHIP.C3, presumably for interaction with the hydrophobic TPR groove.
# Supplementary Figure 14. D-H109 SPR to Recombinant MDM2. Sensorgrams and steady state affinity plots of D-H109 binding to recombinant MDM2 are shown.
# 1.27. CHIP Peptide Binders from Phage Display
# 1.27.1. CHIP Binder Sequences
# Cluster ID Sequence Measured IC50
# CHIP.C1 H201ǂ Ac-pwedcawfawacyni-NH2 470 nM
# CHIP.C2 H203ǂ Ac-phemcywadaycrys-NH2 550 nM
# CHIP.C2 H204ǂ Ac-pldlcywaslhcivs-NH2 770 nM
# Listed sequences were cyclized between C5 and C12 with N,N'-(1,4-phenylene)bis(2-bromoacetamide) . ǂSequences were selected for co-crystallization with CHIP.
# 1.27.2. CHIP Binder FP Validation
# For the competition FP of CHIP, Helicons at 10 mM in DMSO were serially diluted 1:3 in DMSO for a total of 11 concentrations using a Mosquito LV (SPT Labtech), then diluted 1000-fold in buffer (1 x HBS-P+, Cytiva) in duplicate by the Mosquito LV (SPT Labtech) into a black polystyrene 384-well plate (Corning) (11-point three-fold peptide dilution series with top concentration = 10 μM). […]
# HSP70). The plate was incubated and protected from light for 1 hour at room temperature prior to reading. Reads were performed on a CLARIOstar plate reader (BMG Labtech) with excitation at 485 nm, emission at 525 nm, and cutoff at 504 nm. […]
# [2] = biological target: T2, recombinant MDM2 (biotinylated MDM2[25-109]) (Homo sapiens, UniProt Q00987); experiment: SPR of macrocyclic D-peptides to recombinant MDM2; type: binding; details: SI table 1.26.1, Biacore 8K, 25 °C, 1x HBS-P+ with 1% DMSO, top concentration 5 μM, N = 1, * = listed KD value is beyond tested concentrations, read-out: Measured KD
# T2 construct: MDM2 (residues 25-109); made in house
# Excerpt: We identified three binding clusters selective for D-MDM2 with phage display screening (Fig. 4A and SI Section 1.26). In brief, immobilized D-MDM2 from AFPS was screened against an unbiased phage library of 10^8 members displaying macrocyclic α-helical peptides. We sequenced phage particles that remained bound to the targets after washing using next-generation sequencing. Comparisons of sequencing reads to a spiked-in internal reference allowed for a semi-quantitative read-out of binding affinity as a function of protein bait concentration. […] Consistent with previously described α-helical peptide binders to MDM2[64],[65], all three clusters contain anchoring N-terminal tryptophan residues (dW2 in MDM2.C1, dW1 in MDM2.C2, and dW1 in MDM2.C3), and show conserved hydrophobic residues on the same α-helical face as the tryptophan residue (i,i + 4/5 and i,i + 8/9 relative to dW on each cluster). To validate the specificity of each binding cluster, we synthesized representative binding peptides in the D-form (Fig. 4B, D-H101 from MDM2.C1, D-H102 from MDM2.C2, and D-H103 from MDM2.C3) and measured their affinity to recombinant MDM2 with SPR. We observed binding constants of 5.5 μM, 2.4 μM, and 0.88 μM, respectively (Fig. 4C and Supplementary Figs. 6–8).
# 1.24. YAP1-WW1-WW2 Protein Expression […]
# Cluster ID Sequence Measured KD […]
# [3] = 400 nM CHIP23-303, 20 nM probe 5FAM-bAla-[…], 1 hour room temperature, duplicate
# T2 sequence (Q00987 25-109): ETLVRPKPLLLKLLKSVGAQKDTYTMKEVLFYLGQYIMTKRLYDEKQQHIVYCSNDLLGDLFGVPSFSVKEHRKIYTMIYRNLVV
Compound,"IC50 [1, 3]",also measured
"CC[C@@H](C)[C@@H](NC(=O)[C@@H](CC(N)=O)NC(=O)[C@@H](Cc1ccc(O)cc1)NC(=O)[C@H]1CSCC(=O)Nc2ccc(cc2)NC(=O)CSC[C@@H](NC(=O)[C@@H](CC(=O)O)NC(=O)[C@@H](CCC(=O)O)NC(=O)[C@@H](Cc2c[nH]c3ccccc23)NC(=O)[C@H]2CCCN2C(C)=O)C(=O)N[C@H](C)C(=O)N[C@H](Cc2c[nH]c3ccccc23)C(=O)N[C@H](Cc2ccccc2)C(=O)N[C@H](C)C(=O)N[C@H](Cc2c[nH]c3ccccc23)C(=O)N[C@H](C)C(=O)N1)C(N)=O [D-H201] (Ac-[dP][dW][dE][dD][dC][dA][dW][dF][dA][dW][dA][dC][dY][dN][dI]-NH2; linker 5-12 via Phenylene(1,4-NHCOCH2)2)",470 nM,–
"CC(=O)N1CCC[C@@H]1C(=O)N[C@H](Cc1c[nH]c2ccccc12)C(=O)N[C@H](Cc1c[nH]c2ccccc12)C(=O)N[C@H](CCC(=O)O)C(=O)N[C@@H]1CSCC(=O)Nc2ccc(cc2)NC(=O)CSC[C@H](C(=O)N[C@H](CC(=O)O)C(=O)N[C@H](Cc2ccccc2)C(=O)N[C@H](CCCNC(=N)N)C(N)=O)NC(=O)[C@@H](CC(=O)O)NC(=O)[C@@H](CC(=O)O)NC(=O)[C@@H](C)NC(=O)[C@@H](CCC(N)=O)NC(=O)[C@@H](CO)NC(=O)[C@@H](CC(C)C)NC1=O [D-H202] (Ac-[dP][dW][dW][dE][dC][dL][dS][dQ][dA][dD][dD][dC][dD][dF][dR]-NH2; linker 5-12 via Phenylene(1,4-NHCOCH2)2)",–,"IC50 ([1]; unit as printed in the cell of H202, same competition FP): 1230 nM"
"CSCC[C@@H](NC(=O)[C@@H](CCC(=O)O)NC(=O)[C@@H](Cc1c[nH]cn1)NC(=O)[C@H]1CCCN1C(C)=O)C(=O)N[C@@H]1CSCC(=O)Nc2ccc(cc2)NC(=O)CSC[C@H](C(=O)N[C@H](CCCNC(=N)N)C(=O)N[C@H](Cc2ccc(O)cc2)C(=O)N[C@H](CO)C(N)=O)NC(=O)[C@@H](Cc2ccc(O)cc2)NC(=O)[C@@H](C)NC(=O)[C@@H](CC(=O)O)NC(=O)[C@@H](C)NC(=O)[C@@H](Cc2c[nH]c3ccccc23)NC(=O)[C@@H](Cc2ccc(O)cc2)NC1=O [D-H203] (Ac-[dP][dH][dE][dM][dC][dY][dW][dA][dD][dA][dY][dC][dR][dY][dS]-NH2; linker 5-12 via Phenylene(1,4-NHCOCH2)2)",550 nM,–
"CC(=O)N[C@H](CC(=O)O)C(=O)N1CCC[C@@H]1C(=O)N[C@H](C)C(=O)N[C@H](CO)C(=O)N[C@H](CCCNC(=N)N)C(=O)N[C@H](CC(N)=O)C(=O)N[C@@H]1CSCC(=O)Nc2ccc(cc2)NC(=O)CSC[C@H](C(=O)N[C@H](CCC(=O)O)C(=O)N[C@H](Cc2ccc(O)cc2)C(=O)N[C@H](Cc2c[nH]c3ccccc23)C(N)=O)NC(=O)[C@@H](CC(C)C)NC(=O)[C@@H](Cc2c[nH]cn2)NC(=O)[C@@H](C)NC(=O)[C@@H](C)NC(=O)[C@@H](Cc2c[nH]c3ccccc23)NC(=O)[C@@H](CCC(N)=O)NC1=O [H107] (Ac-[dD][dP][dA][dS][dR][dN][dC][dQ][dW][dA][dA][dH][dL][dC][dE][dY][dW]-NH2; linker 7-14 via Phenylene(1,4-NHCOCH2)2)",–,Kd [2]: 1100 nM
"CC[C@@H](C)[C@@H](NC(=O)[C@H]1CSCC(=O)Nc2ccc(cc2)NC(=O)CSC[C@@H](NC(=O)[C@@H](CC(C)C)NC(=O)[C@@H](CC(=O)O)NC(=O)[C@@H](CC(C)C)NC(=O)[C@H]2CCCN2C(C)=O)C(=O)N[C@H](Cc2ccc(O)cc2)C(=O)N[C@H](Cc2c[nH]c3ccccc23)C(=O)N[C@H](C)C(=O)N[C@H](CO)C(=O)N[C@H](CC(C)C)C(=O)N[C@H](Cc2c[nH]cn2)C(=O)N1)C(=O)N[C@@H](C(=O)N[C@H](CO)C(N)=O)C(C)C [H204] (Ac-[dP][dL][dD][dL][dC][dY][dW][dA][dS][dL][dH][dC][dI][dV][dS]-NH2; linker 5-12 via Phenylene(1,4-NHCOCH2)2)",770 nM,–
